52 compounds from PubChem BioAssay AID179 (DTP/NCI, 2004) can be followed below.

This experiment relates to CEM cells HIV-1 protection, formazan growth assay. As to the kind of experiment: NCI AIDS Antiviral Assay. The following applies: for IC50: measured here: growth of uninfected CEM cells. The method, boiled down:
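Soluble formazan readout of cell growth; CEM cells ± HIV-1; 5 drug concs. ≥50% protection → retest; ≥50% again = moderately active; reproducible 100% = confirmed active.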

Where “and” joins values, the source holds several entries; their conditions need not be identical. Identical values can stand only once. Calls of active or inactive are those of the source.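 Rule for the calls: active = compounds giving half or more protection of infected cells from virus-caused growth loss, again on retest; inactive = the rest.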 Where a SMILES comes first, the peptide text is derived from it.

As to `CN(/N=C/c1cccc2cccnc12)c1ccc([N+](=O)[O-])cc1[N+](=O)[O-]`, the result was inactive. `Nc1ccc2oc(=O)ccc2c1`: the EC50 is above 1260 µM and the IC50 turned out to be 8.91 µM. Regarding `CC(C)C[C@H]1[C@@H](OCc2ccccc2)COS(=O)N1[C@H](C)c1ccccc1` (some centres not stated), the EC50 was above 200 µM and the IC50 came out at 9.55 µM. For `CCOC(=O)C1(C(=O)OCC)CC1(C(=O)OCC)C(=O)OCC`, the outcome was inactive. As for `S=C(N/N=C(/c1ccccc1)c1ccccn1)Nc1ccccc1`, the EC50 was above 0.2 µM and the IC50 was 0.0977 µM. Consider `COC12CCC(C(C(=O)c3ccccc3)=C1C(=O)c1ccccc1)C(O)C2` (configuration not stated), for which the EC50 was above 501 µM and the IC50 was above 501 µM. Turning to `CC(=O)N1c2ccccc2C2=NN(C)C(=N)SC21` (configuration not stated), the outcome was inactive. Turning to `CC(C)(C)CS(=O)(=O)O.[Ag]`, the EC50 was above 200 µM and the IC50 was 10.5 µM.

For `COC(=O)[C@@H]1Cc2ccc(OC)c(c2)OCCC(=O)N1`, the EC50 is above 200 µM and the IC50 is above 200 µM. In the case of `CC(C)(C)OC(=O)NNCC(O)COc1ccccc1` (configuration not stated), the EC50 is above 200 µM and the IC50 stood at 91.2 µM. As to `O=C1c2ccccc2C2(c3ccc(Cl)cc3)NCc3ccccc3CN12` (configuration not stated), the EC50 is above 200 µM and the IC50 worked out at 12.9 µM.

As to `O=C(OCc1ccccc1)c1ccc(NCc2cc(O)ccc2O)cc1`, the result was inactive. Take `CCn1c2ccccc2c(=O)c2c(OC)ccc(OC)c21`: the outcome was inactive. Regarding `CC1(O)Cn2c(nc3nccnc32)S1` (configuration not stated), the EC50 is above 603 µM and the IC50 is 31.6 µM. On to `N=C(N)c1ccc(OCCCCCOc2ccc(C(=N)N)cc2)cc1`, for which the EC50 was above 20.4 µM and the IC50 amounted to 1.29 µM. For `Cc1cc2c(cc1O)CC[C@@H]1[C@@H]2CC[C@]2(C)[C@@H](O)CC[C@@H]12`, the EC50 is above 200 µM and the IC50 came out at 4.07 µM. `N#CCc1ccc(C(C#N)/C(CCCC(=O)Nc2cccc([N+](=O)[O-])c2)=N/NC(N)=S)cc1` (configuration not stated): the outcome was inactive. Consider `CC(NNC(=O)c1ccncc1)c1ccc(F)cc1` (configuration not stated), for which the EC50 was above 200 µM and the IC50 came to 12.3 µM.

In the case of `CCCCCCCCCCCCCCCCP(=O)([O-])OCC[N+](C)(C)C`, the EC50 was above 200 µM and the IC50 is 12 µM.

`C=C[C@H]1[C@@H]2CCC3=CC(=O)CC[C@@H]3C2CC[C@]1(C)C(=O)O` (some centres not stated): the EC50 was above 200 µM and the IC50 was above 200 µM. As to `COc1ccc(C2CC(=O)CC(c3ccc(OC)cc3)C23C(=O)NC(=S)NC3=O)cc1` (configuration not stated), the EC50 is above 100 µM and the IC50 is above 100 µM. Turning to `O=C1CSCN1N1CSCC1=O`, the EC50 was above 200 µM and the IC50 was above 200 µM. For the compound `O=C1C2C(C(=O)N1OS(=O)(=O)c1ccccc1)N(Cc1ccccc1)C(=O)N2Cc1ccccc1` (configuration not stated), the EC50 is above 7.59 µM and the IC50 is above 7.59 µM. Turning to `CCCCCCCCCCCC1=c2o[nH]c2=C(c2ccccn2)C(=O)C1=O`, the EC50 was above 19.5 µM and the IC50 was above 19.5 µM. For the compound `O=C(O)/C=C/c1ccc[c]([Sb](=[O])([OH])[OH])c1`, the EC50 was 2.82 µM and the IC50 was above 200 µM. `Cc1ccc(S(=O)(=O)CNC(=S)CCCC(=S)NCS(=O)(=O)c2ccc(C)cc2)cc1`: the result was inactive.

Take `CCCc1cc(=O)oc2c3c(cc(OC(C)CC)c12)O[C@H](C)[C@@H](C)C3=O` (some centres not stated): the EC50 was above 60.3 µM and the IC50 is 14.1 µM.

Take `CC1(C)CC2=C(Sc3ccccc3N2)C(=O)C1C(=O)C(=O)Nc1cc(Cl)ccc1Cl` (configuration not stated): the EC50 was above 148 µM and the IC50 stood at 64.6 µM. Regarding `CCC(C)C(NC(=O)CNC(=O)C(Cc1c[nH]c2ccccc12)NC(=O)C(NC(=O)C(NC(=O)C(N)CC(C)C)C(C)O)C(C)C)C(=O)NC(CCCCN)C(=O)NC(CCC(N)=O)C(=O)NC(CC(C)C)C(=O)NC(CCC(N)=O)C(=O)NC(C)C(=O)NC(CCCN=C(N)N)C(N)=O` (configuration not stated) (H-LTVWGIKQLQAR-NH2; configuration not given here), the EC50 is above 50.1 µM and the IC50 was above 50.1 µM. With `CC1(C)OCC(C2OC(OC(=O)c3ccc(C(F)(F)F)cc3)C3OC(C)(C)OC23)O1` (configuration not stated), the outcome was inactive. Take `COc1cc(=O)n2c3ccccc3n(C)c2c1C#N`: the EC50 is above 100 µM and the IC50 was determined as 56.2 µM.

Consider `CCCNC(=O)Cn1c(C)cc2ccccc21`, for which the EC50 was above 200 µM and the concentration for half-maximal inhibition (IC50) is above 200 µM. Regarding `c1ccc2c(c1)Nc1ccccc1[P+]21c2ccccc2Nc2ccccc21`, the EC50 is above 2 µM and the IC50 came to 0.288 µM. As to `O=[N+]([O-])c1cccc([N+](=O)[O-])c1Cl`, the EC50 is above 200 µM and the IC50 was 16.6 µM. Regarding `O=C1c2ccccc2-c2cccc3cccc1c23`, the EC50 was above 16.2 µM and the IC50 is above 16.2 µM. On to `COc1ccc(/C=N/N2C(=O)c3c(N)c(C#N)c(-c4ccccc4)c(-c4ccccc4)c3C2=O)cc1`, for which the EC50 is above 100 µM and the IC50 was above 100 µM.

Regarding `C[C@@]12c3ccc4c(c3C(=O)c3occ(c31)[C@@H](O)C[C@H]2O)CCC4=O`, the EC50 was above 200 µM and the IC50 is 17.4 µM. Take `CC(C)(C)C1CCC2(N3CCOCC3)C(C#N)CC2C1` (configuration not stated): the EC50 is above 794 µM; the IC50 was 89.1 µM and > 794 µM. Consider `COc1cc(Cc2cnc(N)nc2N)cc(OC)c1OCCCNc1ccc([N+](=O)[O-])cc1`, for which the result was inactive. `O=C(Cc1ccccc1)NN1C(=O)C(Cl)C1c1ccc(O)cc1` (configuration not stated): the EC50 was above 204 µM and the IC50 amounted to 170 µM. Turning to `O=C1C(=O)N(c2nccs2)C(=O)C(=O)C1c1nc2ccccc2s1`, the EC50 is above 100 µM and the IC50 was above 100 µM. For the compound `CC(C)(C)OC(=O)N1CCC(C(=O)O)CC1`, the EC50 was above 200 µM and the IC50 was above 200 µM.

As for `CSc1nc2c(nc(N)n2C2OCC(O)C(O)C2O)c(=O)n1C` (configuration not stated), the outcome was inactive. On to `COC1CC(OC2C(C)OC(OC3C(C)OC(OC4C(O)CC(O[C@H]5CC[C@@]6(C)C(=CC[C@]7(O)[C@@H]6C[C@@H](OC(=O)/C=C/c6ccccc6)[C@@]6(C)[C@]7(O)CC[C@@]6(O)C(C)=O)C5)OC4C)CC3OC)CC2OC)OC(C)C1O` (some centres not stated), for which the EC50 is above 200 µM and the IC50 was 37.2 µM. Take `C1CC2=C(C1)[Se]C(=C1Sc3nsnc3S1)[Se]2`: the EC50 is above 200 µM and the IC50 was 195 µM. For `C[As+](C)(C)CC1OC(OCC(O)COS(=O)(=O)[O-])C(O)C1O` (configuration not stated), the result was inactive.

For the compound `c1cc(C2O[C@H]3CCCN3[C@@H]2c2ccncc2)ccn1` (some centres not stated), the EC50 is above 933 µM and the IC50 amounted to 331 µM. For `CC(NCCCCNC(C)C(=O)O)C(=O)O` (configuration not stated), the EC50 is above 631 µM and the IC50 is above 631 µM. Turning to `CN1CCC2(CC1)SSC1(CCN(C)CC1)S2`, the EC50 was above 200 µM and the IC50 was 191 µM. `COc1cc(C2SCC(=O)N2c2ccc(Oc3ccc(Cl)cc3)c(Cl)c2)cc(OC)c1OC` (configuration not stated): the EC50 is above 200 µM and the concentration for half-maximal inhibition (IC50) turned out to be 20 µM. With `C(=Nc1ccc(/C=C\c2ccnc3ccccc23)cc1)Nc1ccc(/C=C\c2ccnc3ccccc23)cc1`, the EC50 was above 7.59 µM and the IC50 amounted to 5.62 µM.

For the compound `CNNC1=NS(=O)(=O)c2cc(C#N)c(Cl)cc2S1`, the outcome was inactive.

The term EC50 denotes the concentration at which the effect is half-maximal. A word on the IC50: it is the point on the concentration scale where inhibition reaches its midpoint.
